In patent US9617258B2, “Pyrrolo[2,3-d]pyrimidinyl, pyrrolo[2,3-b]pyrazinyl and pyrrolo[2,3-d]pyridinyl acrylamides” (Pfizer Inc., priority 2013, dated 2017):

Test: Stability of JAK3 covalent inhibitors in human whole blood;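 note: parent compound remaining over incubation time quantified by LC-MS/MS as peak area ratio against an internal standard, using pooled K2-EDTA blood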
Type: in vitro ADME
Conditions: both sexes, whole blood, 37° C., read-out: Human blood stability t1/2

Row | half-life at 1 μM | SMILES
1 | 3.98 h | C=CC(=O)N1CCC(Nc2cnc3[nH]cc(C(=O)NC4CCCCC4(F)F)c3n2)CC1 (centres unmarked) [Example 256, 2-[(1-acryloylpiperidin-4-yl)amino]-N-(2,2-difluorocyclohexyl)-5H-pyrrolo[2,3-b]pyrazine-7-carboxamide]
2 | 4.2 h | C=CC(=O)N1C[C@H](Nc2ncnc3[nH]ccc23)C[C@@H](OC)C1 [Example 77, 1-[(3R,5R)-3-Methoxy-5-(7H-pyrrolo[2,3-d]pyrimidin-4-ylamino)piperidin-1-yl]prop-2-en-1-one]
3 | > 6 h | C=CC(=O)N1CCC(Nc2cnc3[nH]cc(C(=O)NC4CCC(F)(F)C4)c3n2)CC1 (centres unmarked) [Example 259, 2-[(1-acryloylpiperidin-4-yl)amino]-N-(3,3-difluorocyclopentyl)-5H-pyrrolo[2,3-b]pyrazine-7-carboxamide]
4 | > 6 h | C=CC(=O)N1CCC(Nc2cnc3[nH]cc(C(=O)NCC(C)CC(F)(F)F)c3n2)CC1 (centres unmarked) [Example 253, 2-[(1-acryloylpiperidin-4-yl)amino]-N-(4,4,4-trifluoro-2-methylbutyl)-5H-pyrrolo[2,3-b]pyrazine-7-carboxamide]
5 | 3.2 h | C=CC(=O)N1CCC[C@@H](Nc2ncnc3[nH]cc(Cl)c23)C1 [Example 3, (R)-1-(3-((5-chloro-7H-pyrrolo[2,3-d]pyrimidin-4-yl)amino)piperidin-1-yl)prop-2-en-1-one]
6 | 5.6 h | C=CC(=O)N1CCC(Nc2cnc3[nH]cc(C(=O)NC(C)(C)C)c3n2)CC1 [Example 266, 2-[(1-acryloylpiperidin-4-yl)amino]-N-tert-butyl-5H-pyrrolo[2,3-b]pyrazine-7-carboxamide]
7 | > 6 h | C=CC(=O)N1CCC(Nc2cnc3[nH]cc(C(=O)NC(C)(C)C)c3n2)C[C@@H]1C (mixture of isomers) [Example 340]
8 | 3.92 h | C=CC(=O)N1CCC(Nc2cnc3[nH]cc(C(=O)NCCCC(F)(F)F)c3n2)CC1 [Example 240, 2-[(1-acryloylpiperidin-4-yl)amino]-N-(4,4,4-trifluorobutyl)-5H-pyrrolo[2,3-b]pyrazine-7-carboxamide]
9 | > 6 h | C=CC(=O)N1CCC[C@@H](Nc2ncnc3[nH]cc(-c4ccc5c(cnn5C)c4)c23)C1 [Example 34, 1-[(3R)-3-{[5-(1-methyl-1H-indazol-5-yl)-7H-pyrrolo[2,3-d]pyrimidin-4-yl]amino}piperidin-1-yl]prop-2-en-1-one]
10 | > 5.74 h | C=CC(=O)N1CCC[C@@H](Nc2ncnc3[nH]cc(CCOC)c23)C1 [Example 46, 1-[(3R)-3-{[5-(2-methoxyethyl)-7H-pyrrolo[2,3-d]pyrimidin-4-yl]amino}piperidin-1-yl]prop-2-en-1-one]
11 | > 6 h | COCCc1c[nH]c2ncnc(N[C@@H]3CCCN(C(=O)/C=C/CN(C)C)C3)c12 [Example 108, (2E)-4-(dimethylamino)-1-[(3R)-3-{[5-(2-methoxyethyl)-7H-pyrrolo[2,3-d]pyrimidin-4-yl]amino}pipendin-1-yl]but-2-en-1-one]
12 | 4.22 h | C=CC(=O)N1C[C@H](C#N)C[C@@H](Nc2ncnc3[nH]ccc23)C1 [Example 6, (3R,5R)-5-((7H-pyrrolo[2,3-d]pyrimidin-4-yl)amino)-1-acryloylpiperidine-3-carbonitrile]
13 | > 5.35 h | C=CC(=O)N1CCC[C@H]1CNc1cnc2[nH]cc(C(=O)NC(C)C)c2n1 [Example 177, 2-({[(2S)-1-acryloylpyrrolidin-2-yl]methyl}amino)-N-(propan-2-yl)-5H-pyrrolo[2,3-b]pyrazine-7-carboxamide]
14 | > 6 h | C/C=C/C(=O)N1CCC[C@@H](Nc2ncnc3[nH]ccc23)C1 [Example 95, (2E)-1-[(3R)-3-(7H-pyrrolo[2,3-d]pyrimidin-4-ylamino)piperidin-1-yl]but-2-en-1-one]
15 | 2.8 h | C=CC(=O)N1CC[C@@H]2OCCN(c3ncnc4[nH]ccc34)[C@@H]2C1 [Example 90, 1-[(4aR,8aS)-4-(7H-Pyrrolo[2,3-d]pyrimidin-4-yl)hexahydro-2H-pyrido[4,3-b][1,4]oxazin-6(5H)-yl]prop-2-en-1-one]
16 | 4.05 h | C=CC(=O)N1CCC(Nc2cnc3[nH]cc(C(=O)N[C@@H]4CCC[C@H]4F)c3n2)CC1 [Example 237, 2-[(1-acryloylpiperidin-4-yl)amino]-N-[(1R,2R)-2-fluorocyclopentyl]-5H-pyrrolo[2,3-b]pyrazine-7-carboxamide]
17 | > 6 h | C=CC(=O)N1CCC(Nc2cnc3[nH]ccc3n2)CC1 [Example 176, 1-[4-(5H-pyrrolo[2,3-b]pyrazin-2-ylamino)piperidin-1-yl]prop-2-en-1-one]
18 | 4.73 h | C=CC(=O)N1CCC(Nc2cnc3[nH]cc(C(=O)N[C@H]4CC[C@@H](F)C4)c3n2)CC1 [Example 244, 2-[(1-acryloylpiperidin-4-yl)amino]-N-[(1S,3R)-3-fluorocyclopentyl]-5H-pyrrolo[2,3-b]pyrazine-7-carboxamide]
19 | > 5.17 h | C=CC(=O)N1C[C@@H](O)C[C@@H](Nc2ncnc3[nH]ccc23)C1 [Example 17, 1-((3R,5S)-3-(7H-Pyrrolo[2,3-d]pyrimidin-4-ylamino)-5-hydroxypiperidin-1-yl)prop-2-en-1-one]

Row | half-life at 1 μM | SMILES
20 | 5.08 h | C=CC(=O)N1C[C@H](Nc2ncnc3[nH]cc(CCOC)c23)CC[C@@H]1C [Example 13]
21 | > 6 h | C=CC(=O)N1C[C@@H](C)C[C@H](Nc2ncnc3[nH]ccc23)C1 [Example 75, 1-((3S,5S)-3-((7H-Pyrrolo[2,3-d]pyrimidin-4-yl)amino)-5-methylpiperidin-1-yl)prop-2-en-1-one]
22 | > 5.85 h | C#CCNC(=O)c1c[nH]c2ncc(NC3CCN(C(=O)C=C)CC3)nc12 [Example 343, 2-((1-Acryloylpiperidin-4-yl)amino)-N-(prop-2-yn-1-yl)-5H-pyrrolo[2,3-b]pyrazine-7-carboxamide]
23 | > 6 h | C=CC(=O)N1CCC(Nc2cnc3[nH]cc(-c4ccc(C)nc4)c3n2)CC1 [Example 199, 1-(4-{[7-(6-methylpyridin-3-yl)-5H-pyrrolo[2,3-b]pyrazin-2-yl]amino}piperidin-1-yl)prop-2-en-1-one]
24 | 5.47 h | C=CC(=O)N1CCC(Oc2cnc3[nH]cc(C(=O)NC(C)(C)C)c3n2)CC1 [Example 338, 2-((1-Acryloylpiperidin-4-yl)oxy)-N-(tert-butyl)-5H-pyrrolo[2,3-b]pyrazine-7-carboxamide]
25 | 3.75 h | C=CC(=O)N1CCC(Nc2cnc3[nH]cc(C(=O)NC(C)(C)CC)c3n2)CC1 [Example 276, 2-[(1-acryloylpiperidin-4-yl)amino]-N-(2-methylbutan-2-yl)-5H-pyrrolo[2,3-b]pyrazine-7-carboxamide]
26 | 5.78 h | C=CC(=O)N1C[C@@H](C)C[C@@H](Nc2ncnc3[nH]ccc23)C1 (racemic) [Example 22, rac-cis-1-((3R,5S)-3-((7H-Pyrrolo[2,3-d]pyrimidin-4-yl)amino)-5-methylpiperidin-1-yl)prop-2-en-1-one]
27 | 2.37 h | C=CC(=O)N1CC[C@@H](C)[C@H](Nc2ncnc3[nH]ccc23)C1 [Example 112, 1-[(3S,4R)-4-Methyl-3-(7H-pyrrolo[2,3-d]pyrimidin-4-ylamino)piperidin-1-yl]prop-2-en-1-one]
28 | 3.93 h | C=CC(=O)N1CCC(Nc2cnc3[nH]cc(C(=O)NC4CCCCC4)c3n2)CC1 [Example 278, 2-[(1-acryloylpiperidin-4-yl)amino]-N-cyclohexyl-5H-pyrrolo[2,3-b]pyrazine-7-carboxamide]
29 | > 5.31 h | C=CC(=O)N1C[C@H](Nc2ncnc3[nH]cc(Cl)c23)CC[C@@H]1C [Example 18, 1-((2S,5R)-5-((5-Chloro-7H-pyrrolo[2,3-d]pyrimidin-4-yl)amino)-2-methylpiperidin-1-yl)prop-2-en-1-one]
30 | 5.07 h | C=CC(=O)N1C[C@H](C)C[C@H](Nc2ncnc3[nH]ccc23)C1 [Example 128, 1-[(3R,5S)-3-Methyl-5-(7H-pyrrolo[2,3-d]pyrimidin-4-ylamino)piperidin-1-yl]prop-2-en-1-one]
31 | > 6 h | C=CC(=O)N1CCC(Nc2cnc3[nH]cc(C(=O)NC4CC(F)C4)c3n2)CC1 (centres unmarked) [Example 243, 2-[(1-acryloylpiperidin-4-yl)amino]-N-(3-fluorocyclobutyl)-5H-pyrrolo[2,3-b]pyrazine-7-carboxamide]
32 | 2.28 h | C=CC(=O)N1CCC(Nc2cnc3[nH]cc(C(=O)NCC(C)(C)C)c3n2)CC1 [Example 271, 2-[(1-acryloylpiperidin-4-yl)amino]-N-(2,2-dimethylpropyl)-5H-pyrrolo[2,3-b]pyrazine-7-carboxamide]
33 | > 6 h | C=C(C)C(=O)N1CC[C@@H]2CCN(c3ncnc4[nH]ccc34)[C@@H]2C1 [Example 85, 2-methyl-1-[(3aS,7aS)-1-(7H-pyrrolo[2,3-d]pyrimidin-4-yl)octahydro-6H-pyrrolo[2,3-c]pyridin-6-yl]prop-2-en-1-one]
34 | > 6 h | C=CC(=O)N1CCC(Nc2cnc3[nH]cc(C(=O)N[C@H](C)CCC)c3n2)CC1 [Example 274, 2-[(1-acryloylpiperidin-4-yl)amino]-N-[(2R)-pentan-2-yl]-5H-pyrrolo[2,3-b]pyrazine-7-carboxamide]
35 | > 6 h | C=CC(=O)N1CCC(Oc2cnc3[nH]cc(-c4cnn(C)c4)c3n2)CC1 [Example 218, 1-(4-{[7-(1-methyl-1H-pyrazol-4-yl)-5H-pyrrolo[2,3-b]pyrazin-2-yl]oxy}piperidin-1-yl)prop-2-en-1-one]
36 | > 6 h | C=CC(=O)N1CCC[C@@H](Nc2ncnc3[nH]cc(-c4cncc(OC)c4)c23)C1 [Example 24, 1-[(3R)-3-{[5-(5-methoxypyridin-3-yl)-7H-pyrrolo[2,3-d]pyrimidin-4-yl]amino}piperidin-1-yl]prop-2-en-1-one]
37 | > 6 h | C=CC(=O)N1C[C@@H](Nc2ncnc3[nH]ccc23)CC[C@H]1CO [Example 117, 1-[(2S,5S)-2-(Hydroxymethyl)-5-(7H-pyrrolo[2,3-d]pyrimidin-4-ylamino)piperidin-1-yl]prop-2-en-1-one]
38 | 3.73 h | C=CC(=O)N1CCC(Nc2cnc3[nH]cc(C(=O)N[C@@H](C)CCC)c3n2)CC1 [Example 267, 2-[(1-acryloylpiperidin-4-yl)amino]-N-[(2S)-pentan-2-yl]-5H-pyrrolo[2,3-b]pyrazine-7-carboxamide]
